Test results as given in ChEMBL document CHEMBL1123419, “Synthesis and antiviral activity of sulfonamidobenzophenone oximes and sulfonamidobenzamides” (1986).
In brackets after ≈: the same amount, converted by molar mass.

Tested on: Poliovirus 1
Test: microbe, parasite or virus in culture
Format: functional
Conditions: Enterovirus C; read-out: ED50 (the source's name)

| SMILES | EC50 [µg/mL] |
| --- | --- |
| CC(C)S(=O)(=O)Nc1cccc(C(=O)NCc2ccccc2)c1 | > 50 |
| CCCOc1ccc(NC(=O)c2ccc(NS(=O)(=O)N(C)C)cc2)cc1 | 0.7 (≈ 1.85 µM) |
| CN(C)S(=O)(=O)Nc1cccc(NC(=O)c2ccccc2)c1 | 20 (≈ 62.6 µM) |
| CN(C)S(=O)(=O)Nc1cccc(/C(=N/O)c2ccc3c(c2)OCO3)c1 | 3.4 (≈ 9.36 µM) |
| CC(C)S(=O)(=O)Nc1cccc(C(=O)Nc2ccccc2)c1 | 7 (≈ 22 µM) |
| CN(C)S(=O)(=O)Nc1ccc(C(=O)Nc2ccccc2)cc1 | 3 (≈ 9.39 µM) |
| CC(C)S(=O)(=O)Nc1ccc(C(=O)Nc2ccc(C(F)(F)F)cc2)cc1 | 0.25 (≈ 0.647 µM) |
| O=C(Nc1ccccc1)c1cccc(NS(=O)(=O)N2CCCC2)c1 | 6.4 (≈ 18.5 µM) |
| Cc1ccc(NS(=O)(=O)C(C)C)cc1C(=O)Nc1ccc(Cl)cc1 | 12 (≈ 32.7 µM) |
| CN(C)S(=O)(=O)Nc1ccc(C(=O)Nc2cccc(Cl)c2)cc1 | 1.6 (≈ 4.52 µM) |
| CC(C)S(=O)(=O)Nc1cccc(C(=O)Nc2nccs2)c1 | 25 (≈ 76.8 µM) |
| CC(C)S(=O)(=O)Nc1cccc(C(=O)Nc2ccc(Cl)c(Cl)c2)c1 | > 25 |
| CN(C)S(=O)(=O)Nc1ccc(C(=O)Nc2ccc(C(C)(C)C)cc2)cc1 | 0.12 (≈ 0.32 µM) |
| CN(C)S(=O)(=O)Nc1cccc(C(=O)Nc2ccc(Br)cc2)c1 | 1.7 (≈ 4.27 µM) |
| CN(C)S(=O)(=O)Nc1ccc(C(=O)Nc2cccc(Br)c2)cc1 | 5 (≈ 12.6 µM) |
| CC(C)S(=O)(=O)Nc1cccc(C(=O)Nc2cccc(CO)c2)c1 | > 50 |
| CN(C)S(=O)(=O)Nc1cccc(C(=O)Nc2ccccc2)c1 | 4 (≈ 12.5 µM) |
| CN(C)S(=O)(=O)Nc1ccc(C(=O)Nc2ccccc2Cl)cc1 | 6.2 (≈ 17.5 µM) |
| CC(C)S(=O)(=O)Nc1cccc(C(=O)Nc2cccc(O)c2)c1 | 25 (≈ 74.8 µM) |
| CN(C)S(=O)(=O)Nc1cccc(C(=O)NC2CCCCC2)c1 | 28 (≈ 86 µM) |
| COC(=O)c1ccc(NC(=O)c2cccc(NS(=O)(=O)C(C)C)c2)cc1 | 4 (≈ 10.6 µM) |
| Cc1cccc(NC(=O)c2ccc(NS(=O)(=O)N(C)C)cc2)c1 | 2.3 (≈ 6.9 µM) |
| COc1ccc(/C(=N\O)c2cccc(NS(=O)(=O)N3CCCC3)c2)cc1 | 1.1 (≈ 2.93 µM) |

| SMILES | EC50 [µg/mL] |
| --- | --- |
| CC(=O)c1ccccc1NC(=O)c1cccc(NS(=O)(=O)C(C)C)c1 | 5 (≈ 13.9 µM) |
| CC(C)S(=O)(=O)Nc1cccc(C(=O)NC(C)(C)C)c1 | > 50 |
| CN(C)S(=O)(=O)Nc1ccccc1C(=O)Nc1ccccc1 | 25 (≈ 78.3 µM) |
| CS(=O)(=O)Nc1cccc(C(=O)Nc2ccccc2)c1 | > 50 |
| COC(=O)c1cccc(NC(=O)c2ccc(NS(=O)(=O)N(C)C)cc2)c1 | 1.2 (≈ 3.18 µM) |
| CN(C)S(=O)(=O)Nc1cccc(C(=O)Nc2ccccn2)c1 | 44 (≈ 137 µM) |
| CC(C)S(=O)(=O)Nc1cccc(C(=O)Nc2ccccc2N)c1 | > 50 |
| CC(C)S(=O)(=O)Nc1cccc(C(=O)Nc2cccc([N+](=O)[O-])c2)c1 | > 25 |
| CN(C)S(=O)(=O)Nc1ccc(Cl)c(C(=O)Nc2ccc(Cl)cc2)c1 | > 50 |
| COc1ccc(/C(=N\O)c2cccc(NS(=O)(=O)N(C)C)c2)cc1OC | 0.55 (≈ 1.45 µM) |
| CC(C)S(=O)(=O)Nc1cccc(C(=O)NC(c2ccccc2)c2ccccc2)c1 | > 50 |
| CC(C)S(=O)(=O)Nc1cccc(C(=O)Nc2ccc(Cl)cc2)c1 | 1.2 (≈ 3.4 µM) |
| CC(C)S(=O)(=O)Nc1cccc(C(=O)Nc2ccc(Br)cc2)c1 | 0.7 (≈ 1.76 µM) |
| CN(C)S(=O)(=O)Nc1cccc(C(=O)Nc2ccc(C(F)(F)F)cc2)c1 | 0.46 (≈ 1.19 µM) |
| CCCCc1ccc(NC(=O)c2ccc(NS(=O)(=O)C(C)C)cc2)cc1 | 0.16 (≈ 0.427 µM) |
| CN(C)S(=O)(=O)Nc1cccc(C(=O)Nc2cccc(Cl)c2)c1 | 1.5 (≈ 4.24 µM) |
| O=C(Nc1ccccc1)c1cccc(NS(=O)(=O)N2CCCCC2)c1 | 11 (≈ 30.6 µM) |
| CN(C(=O)c1ccc(NS(=O)(=O)N(C)C)cc1)c1ccc(Cl)cc1 | > 25 |
| CC(C)S(=O)(=O)Nc1cccc(C(=O)Nc2ccccc2C(F)(F)F)c1 | 0.6 (≈ 1.55 µM) |
| O=C(Nc1ccccc1)c1cccc(NS(=O)(=O)c2ccccc2)c1 | 17 (≈ 48.2 µM) |
| CN(C)S(=O)(=O)Nc1cc(C(=O)Nc2ccccc2)ccc1Cl | 10 (≈ 28.3 µM) |
| COc1ccc(NC(=O)c2cccc(NS(=O)(=O)N(C)C)c2)cc1 | 4 (≈ 11.4 µM) |
